PMC7671598, “Differences in the efficiency of 3-deazathiamine and oxythiamine pyrophosphates as inhibitors of pyruvate dehydrogenase complex and growth of HeLa cells in vitro” (Journal of Enzyme Inhibition and Medicinal Chemistry, 2020)

Target: T1, pyruvate dehydrogenase complex (PDHC)
T1 construct: gene PDHA1; native mitochondrial complex isolated from porcine heart; with PDHB (E1 beta) and the other subunits of the complex
Experiment: spectrophotometric PDHC kinetics at […] nm, Lineweaver-Burk, Ki from the shift of Km for TPP
Format: biochemical, Sus scrofa
Details: read-out: Kinetic parameters / Ki

Cc1ncc(C[n+]2csc(CCOP(=O)(O)OP(=O)(O)O)c2C)c(O)n1 [compound 18, oxythiamine pyrophosphate]
Ki: 25 ± 15 nM

Cc1ncc(Cc2csc(CCOP(=O)(O)OP(=O)(O)O)c2C)c(N)n1 [compound 15, 3-deazathiamine pyrophosphate]
Ki: 2.6 ± 0.9 nM
